Tests used:
[1] = target: T1, Z A1AT (Homo sapiens, UniProt P01009, E366K); experiment: A1AT cell secretion assay using HEK-Z cells; assay type: cell-based; conditions: 300 nM, 48 h, supernatant A1AT by ELISA, read-out: Median A1AT % increase over vehicle at 300 nM
T1 construct: expressed in transfected cells; host or cells: HEK-Z (human embryonic kidney cells stably transfected with the human Z A1AT gene)
Procedure: HEK-Z cells, a human embryonic kidney cell line stably transfected with the human Z A1AT gene, were plated into 96 well plates (3.0×10^5 cells/ml with 200 μl of media/well) overnight at 37° C. in a humidified atmosphere containing 5% CO2. Following incubation cells were washed with 200 μl serum-free media three times and media was replaced with treatments in quadruplicate using serum free media containing either vehicle, 10 μM suberanilohydroxamic acid (SAHA) or a compound of the invention (at concentrations of 10, 33, 100 and 333 nM) for 48 h in a 37° C. incubator in a final volume of 200 μl. At the end of the incubation step the supernatants were removed from the wells, centrifuged at 1000×g at 4° C. for 10 min and were assayed for human A1AT levels by ELISA (Human Serpin A1/α1-antitrypsin duo set ELISA, R& D Systems, DY1268) per manufacturer's instructions.
Briefly, a 96 well plate was coated with human A1AT capture antibody overnight at room temperature (1:180 dilution from stock, 100 μl final volume/well). The capture antibody was then removed and wells washed three times with 300 μl wash buffer (0.05% Tween 20 in PBS) and then 200 μl reagent diluent ([…]) was incubated in each well for 1 h at room temperature. Diluted samples, standards (125, 250, 500, 1000, 2000, 4000 and 8000 pg/ml A1AT) or blanks were then added to each well in duplicate and the plates were covered with a plate sealer and left at room temperature for 2 h. At the end of the sample incubation step, samples were removed and all wells washed as previously and 100 μl detection antibody (1:180 dilution from stock) was added to each well and incubated for a further 2 h at room temperature. Following incubation with detection antibody, supernatant was removed and wells were washed as previously and 100 μl streptavidin-HRP solution (1:200 dilution from stock) was added to each well for 20 min in the dark. After which, 50 μl stop solution (2M H2SO4) was added and optical density (OD) of each well was read at 450 nm with 570 nm blank subtracted from each well using a microplate reader. A 4-parameter logistic curve was constructed using GraphPad Prism 7 and A1AT concentrations were determined in each sample by interpolation from a standard curve and multiplying by the appropriate dilution factor.

[2] = target: wild-type A1AT (M) (Homo sapiens, UniProt P01009); conditions: cited from earlier work
wild-type A1AT (M), sequence (P01009 25-418): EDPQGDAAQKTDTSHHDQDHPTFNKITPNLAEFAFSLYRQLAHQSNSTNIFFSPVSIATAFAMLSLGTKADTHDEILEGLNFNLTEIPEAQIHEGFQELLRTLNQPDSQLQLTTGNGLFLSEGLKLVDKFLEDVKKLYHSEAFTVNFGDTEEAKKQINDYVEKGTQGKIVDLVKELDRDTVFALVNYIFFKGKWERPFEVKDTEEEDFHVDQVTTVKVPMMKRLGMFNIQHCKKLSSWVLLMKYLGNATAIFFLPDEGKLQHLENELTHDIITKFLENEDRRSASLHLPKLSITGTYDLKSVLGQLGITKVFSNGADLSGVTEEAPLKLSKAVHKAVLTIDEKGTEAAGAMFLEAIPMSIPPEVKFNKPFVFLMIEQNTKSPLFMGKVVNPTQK

T1 sequence (P01009 25-418 E366K): as the sequence (P01009 25-418) above, with E342K counted along it

Row | activation at 0.3 µM [1] [%] | Compound | binding to wild-type A1AT (M) [2]
1 | 140 | CN(C)C(=O)c1ccc(Cn2c(=O)cc[nH]c2=O)cc1 [Example 5, 4-((2,6-dioxo-3,6-dihydropyrimidin-1(2H)-yl)methyl)-N,N-dimethylbenzamide] | –
2 | 170 | CC(C)N(C)C(=O)c1ccc(Cn2c(=O)cc[nH]c2=O)cc1 [Example 7, 4-((2,6-dioxo-3,6-dihydropyrimidin-1(2H)-yl)methyl)-N-isopropyl-N-methylbenzamide] | –
3 | 190 | CCN(C)C(=O)c1ccc(Cn2c(=O)cc[nH]c2=O)cc1 [Example 6, 4-((2,6-dioxo-3,6-dihydropyrimidin-1(2H)-yl)methyl)-N-ethyl-N-methylbenzamide] | –

Continued, compound first:

Row | Compound | activation at 0.3 µM [1] [%] | binding to wild-type A1AT (M) [2]
4 | O=C(NCc1ccc(F)cc1)c1ccc(Cn2ccc(=O)[nH]c2=O)cc1 [Example 4, 4-((2,4-dioxo-3,4-dihydropyrimidin-1(2H)-yl)methyl)-N-(4-fluorobenzyl)benzamide] | 170 | –
5 | CN(C)C(=O)c1ccc(Cn2ccc(=O)[nH]c2=O)cc1 [Example 1, 4-((2,4-dioxo-3,4-dihydropyrimidin-1(2H)-yl)methyl)-N,N-dimethylbenzamide] | 130 | –
6 | CNC(=O)c1ccc(Cn2ccc(=O)[nH]c2=O)cc1 [Example 2, 4-((2,4-dioxo-3,4-dihydropyrimidin-1(2H)-yl)methyl)-N-methylbenzamide] | 175 | –
7 | CN(CC(F)(F)F)C(=O)c1ccc(Cn2c(=O)cc[nH]c2=O)cc1 [Example 9, 4-((2,6-dioxo-3,6-dihydropyrimidin-1(2H)-yl)methyl)-N-methyl-N-(2,2,2-trifluoroethyl)benzamide] | 180 | –
8 | O=S(=O)(O)c1cccc2c(-c3ccc(Nc4ccccc4)c4c(S(=O)(=O)O)cccc34)ccc(Nc3ccccc3)c12 [bis-ANS, 4,4′-dianilino-1,1′-binaphthyl-5,5′-disulfonate] | – | not to wild-type A1AT (M)
9 | CC(C)NC(=O)c1ccc(Cn2ccc(=O)[nH]c2=O)cc1 [Example 3, 4-((2,4-dioxo-3,4-dihydropyrimidin-1(2H)-yl)methyl)-N-isopropylbenzamide] | 190 | –
10 | CN(Cc1ccccc1)C(=O)c1ccc(Cn2c(=O)cc[nH]c2=O)cc1 [Example 8, N-benzyl-4-((2,6-dioxo-3,6-dihydropyrimidin-1(2H)-yl)methyl)-N-methylbenzamide] | 175 | –
